Among the data in patent publication US10494355B2, “Oxadiazole amine derivative compounds as histone deacetylase 6 inhibitor, and the pharmaceutical composition comprising the same” (Chong Kun Dang Pharmaceutical Corp., priority 2015, dated 2019) are IC50 values, retold here.

Bounds are passed on as bounds.

Assay [1] addresses T1, human recombinant HDAC6 (Homo sapiens, UniProt Q9UBN7).
T1 construct: purchased Calbiochem 382180
T1 sequence (Q9UBN7 1-1215): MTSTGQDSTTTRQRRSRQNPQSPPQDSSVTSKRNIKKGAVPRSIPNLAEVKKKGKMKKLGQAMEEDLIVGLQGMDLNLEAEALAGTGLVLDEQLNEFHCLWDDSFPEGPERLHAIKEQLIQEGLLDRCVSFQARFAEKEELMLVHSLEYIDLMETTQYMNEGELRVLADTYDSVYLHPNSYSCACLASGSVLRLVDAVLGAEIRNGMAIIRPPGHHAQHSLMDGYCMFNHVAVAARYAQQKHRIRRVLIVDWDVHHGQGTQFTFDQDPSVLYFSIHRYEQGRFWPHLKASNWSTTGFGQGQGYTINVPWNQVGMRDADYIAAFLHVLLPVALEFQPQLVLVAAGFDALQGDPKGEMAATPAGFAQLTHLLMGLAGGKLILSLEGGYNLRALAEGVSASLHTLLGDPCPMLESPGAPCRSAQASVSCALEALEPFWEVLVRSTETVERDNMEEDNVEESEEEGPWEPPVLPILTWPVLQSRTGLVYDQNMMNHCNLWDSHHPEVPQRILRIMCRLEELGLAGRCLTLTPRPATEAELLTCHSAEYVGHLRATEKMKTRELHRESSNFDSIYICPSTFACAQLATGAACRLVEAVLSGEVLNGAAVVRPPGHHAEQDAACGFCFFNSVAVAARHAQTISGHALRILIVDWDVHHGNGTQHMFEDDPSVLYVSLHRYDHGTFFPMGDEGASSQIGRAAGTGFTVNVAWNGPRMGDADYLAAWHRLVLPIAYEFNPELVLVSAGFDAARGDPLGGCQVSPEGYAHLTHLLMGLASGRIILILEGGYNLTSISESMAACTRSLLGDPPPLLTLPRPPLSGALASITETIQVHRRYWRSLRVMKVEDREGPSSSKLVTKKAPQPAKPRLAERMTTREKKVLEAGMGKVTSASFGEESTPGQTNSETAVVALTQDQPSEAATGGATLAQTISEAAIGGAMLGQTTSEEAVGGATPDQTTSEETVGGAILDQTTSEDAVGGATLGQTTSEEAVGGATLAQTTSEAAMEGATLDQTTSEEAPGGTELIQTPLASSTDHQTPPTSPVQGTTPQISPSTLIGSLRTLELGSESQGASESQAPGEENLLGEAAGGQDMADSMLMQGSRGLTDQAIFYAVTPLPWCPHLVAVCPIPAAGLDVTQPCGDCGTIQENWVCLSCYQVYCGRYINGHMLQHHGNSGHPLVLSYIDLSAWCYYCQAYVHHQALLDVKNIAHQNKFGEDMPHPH
Briefly: HDAC6 enzyme activity inhibition assay (HDAC Fluorimetric Drug Discovery Kit). The assay is classed as biochemical. As to conditions: 30° C. 60 minutes. An outline of the steps:
(§1)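 First, compound in 5-fold dilution steps is combined with 0.3 μg enzyme and 10 μM Fluor de Lys-SIRT1 substrate. After 60 min at 30° C, developer is added for 30 min. Fluorescence at Ex 360/Em 460 then gives IC50 values.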

The target of assay [2] is T2, human recombinant HDAC1 (Homo sapiens, UniProt Q13547).
T2 construct: purchased Enzo Life Science BML-SE456
The assay can be described thus: HDAC1 enzyme activity inhibition assay (HDAC Fluorimetric Drug Discovery Kit). The assay is classed as biochemical. As to conditions: human recombinant HDAC1, 10 μM substrate, 30° C. 60 minutes. An outline of the steps:
as §1

T2 sequence (Q13547 whole entry): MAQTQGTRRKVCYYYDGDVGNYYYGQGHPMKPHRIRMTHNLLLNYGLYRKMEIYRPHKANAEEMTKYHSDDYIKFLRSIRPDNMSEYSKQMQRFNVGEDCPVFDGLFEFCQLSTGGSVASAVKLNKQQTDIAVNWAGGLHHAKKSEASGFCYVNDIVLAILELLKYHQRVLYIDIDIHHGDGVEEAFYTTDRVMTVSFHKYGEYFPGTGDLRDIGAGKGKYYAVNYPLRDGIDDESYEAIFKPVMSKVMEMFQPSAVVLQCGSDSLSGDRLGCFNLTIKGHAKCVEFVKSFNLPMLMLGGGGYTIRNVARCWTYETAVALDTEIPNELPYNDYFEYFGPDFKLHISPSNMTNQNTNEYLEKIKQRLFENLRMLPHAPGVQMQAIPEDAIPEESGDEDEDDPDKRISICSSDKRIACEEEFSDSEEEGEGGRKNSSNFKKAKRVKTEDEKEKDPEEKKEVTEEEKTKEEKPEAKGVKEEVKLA

`FC(F)c1nnc(-c2cnc(NC3(c4ccc(Cl)c(Cl)c4)CCC3)nc2)o1` [Compound 1834, N-(1-(3,4-dichlorophenyl)cyclobutyl)-5-(5-(difluoromethyl)-1,3,4-oxadiazol-2-yl)pyrimidin-2-amine]: the IC50 in assay [1] is 120 nM; in assay [2], above 10000 nM.
The matching figures for `FC(F)(F)c1nnc(-c2cnc(NC3(c4ccc(Cl)c(Cl)c4)CCC3)nc2)o1` [Compound 1835, N-(1-(3,4-dichlorophenyl)cyclobutyl)-5-(5-(trifluoromethyl)-1,3,4-oxadiazol-2-yl)pyrimidin-2-amine]: 1960 nM and above 10000 nM.
The matching figures for `FC(F)c1nnc(-c2cnc(NC3(c4ccc(Cl)cc4Cl)CCC3)nc2)o1` [Compound 1836, N-(1-(2,4-dichlorophenyl)cyclobutyl)-5-(5-(difluoromethyl)-1,3,4-oxadiazol-2-yl)pyrimidin-2-amine]: 200 nM and above 10000 nM.
In the same order, the values of `FC(F)(F)c1nnc(-c2cnc(NC3(c4ccc(Cl)cc4Cl)CCC3)nc2)o1` [Compound 1837, N-(1-(2,4-dichlorophenyl)cyclobutyl)-5-(5-(trifluoromethyl)-1,3,4-oxadiazol-2-yl)pyrimidin-2-amine] are 2520 nM and above 10000 nM.
With `FC(F)c1nnc(-c2cnc(NC3(c4c(Cl)cccc4Cl)CCC3)nc2)o1` [Compound 1838, N-(1-(2,6-dichlorophenyl)cyclobutyl)-5-(5-(difluoromethyl)-1,3,4-oxadiazol-2-yl)pyrimidin-2-amine], the IC50 in assay [1] was 110 nM; in assay [2], above 10000 nM.
Regarding `FC(F)c1nnc(-c2cnc(NC3(c4cccnc4)CCC3)nc2)o1` [Compound 1913, 5-(5-(difluoromethyl)-1,3,4-oxadiazol-2-yl)-N-(1-(pyridin-3-yl)cyclobutyl)pyrimidin-2-amine], the IC50 in assay [1] was 40 nM; in assay [2], above 10000 nM.
In the same order, the values of `Fc1ccc(C2(Nc3ncc(-c4nnc(C(F)F)o4)cn3)CCC2)c(Cl)c1` [Compound 1959, N-(1-(2-chloro-4-fluorophenyl)cyclobutyl)-5-(5-(difluoromethyl)-1,3,4-oxadiazol-2-yl)pyrimidin-2-amine] are 163 nM and above 10000 nM.
As for `Fc1ccc(C2(Nc3ncc(-c4nnc(C(F)(F)F)o4)cn3)CCC2)c(Cl)c1` [Compound 1960, N-(1-(2-chloro-4-fluorophenyl)cyclobutyl)-5-(5-(trifluoromethyl)-1,3,4-oxadiazol-2-yl)pyrimidin-2-amine], the IC50 in assay [1] is 1230 nM; in assay [2], above 10000 nM.
For the compound `Fc1ccc(Cl)c(C2(Nc3ncc(-c4nnc(C(F)F)o4)cn3)CCC2)c1` [Compound 1961, N-(1-(2-chloro-5-fluorophenyl)cyclobutyl)-5-(5-(difluoromethyl)-1,3,4-oxadiazol-2-yl)pyrimidin-2-amine], the IC50 in assay [1] was 115 nM; in assay [2], above 10000 nM.
Regarding `Fc1ccc(Cl)c(C2(Nc3ncc(-c4nnc(C(F)(F)F)o4)cn3)CCC2)c1` [Compound 1962, N-(1-(2-chloro-5-fluorophenyl)cyclobutyl)-5-(5-(trifluoromethyl)-1,3,4-oxadiazol-2-yl)pyrimidin-2-amine], the figures for the IC50 in assay [1] and in assay [2] were 888 nM and above 10000 nM, respectively.
The matching figures for `Fc1ccc(Cl)cc1C1(Nc2ncc(-c3nnc(C(F)F)o3)cn2)CCC1` [Compound 1963, N-(1-(5-chloro-2-fluorophenyl)cyclobutyl)-5-(5-(difluoromethyl)-1,3,4-oxadiazol-2-yl)pyrimidin-2-amine]: 89 nM and above 10000 nM.
In the same order, the values of `Fc1ccc(Cl)cc1C1(Nc2ncc(-c3nnc(C(F)(F)F)o3)cn2)CCC1` [Compound 1964, N-(1-(5-chloro-2-fluorophenyl)cyclobutyl)-5-(5-(trifluoromethyl)-1,3,4-oxadiazol-2-yl)pyrimidin-2-amine] are 1850 nM and above 10000 nM.
In the same order, the values of `Fc1c(Cl)cccc1C1(Nc2ncc(-c3nnc(C(F)F)o3)cn2)CCC1` [Compound 1965, N-(1-(3-chloro-2-fluorophenyl)cyclobutyl)-5-(5-(difluoromethyl)-1,3,4-oxadiazol-2-yl)pyrimidin-2-amine] are 70 nM and above 10000 nM.
On to `Fc1c(Cl)cccc1C1(Nc2ncc(-c3nnc(C(F)(F)F)o3)cn2)CCC1` [Compound 1966, N-(1-(3-chloro-2-fluorophenyl)cyclobutyl)-5-(5-(trifluoromethyl)-1,3,4-oxadiazol-2-yl)pyrimidin-2-amine], for which the IC50 in assay [1] is 1470 nM; in assay [2], above 10000 nM.
The matching figures for `FC(F)c1nnc(-c2cnc(NC3(c4ccc(C5CCN(C6COC6)CC5)cc4)CCC3)nc2)o1` [Compound 2023, 5-(5-(difluoromethyl)-1,3,4-oxadiazol-2-yl)-N-(1-(4-(1-(oxetan-3-yl)piperidin-4-yl)phenyl)cyclobutyl)pyrimidin-2-amine]: 387 nM and above 10000 nM.
As to `Cc1ccc(S(=O)(=O)CC2(Nc3ncc(-c4nnc(C(F)F)o4)cn3)CCC2)cc1` [Compound 2026, 5-(5-(difluoromethyl)-1,3,4-oxadiazol-2-yl)-N-(1-(tosylmethyl)cyclobutyl)pyrimidin-2-amine], the IC50 in assay [1] and in assay [2] was above 10000 nM throughout.
Take `Fc1ccc(C2(Nc3ncc(-c4nnc(C(F)F)o4)cn3)CCC2)c(F)c1` [Compound 2027, 5-(5-(difluoromethyl)-1,3,4-oxadiazol-2-yl)-N-(1-(2,4-difluorophenyl)cyclobutyl)pyrimidin-2-amine]: the IC50 in assay [1] is 90 nM; in assay [2], above 10000 nM.
In the same order, the values of `FC(F)c1nnc(-c2cnc(NC3(c4ccccc4OC(F)(F)F)CCC3)nc2)o1` [Compound 2028, 5-(5-(difluoromethyl)-1,3,4-oxadiazol-2-yl)-N-(1-(2-(trifluoromethoxy)phenyl)cyclobutyl)pyrimidin-2-amine] are 302 nM and above 10000 nM.
Turning to `FC(F)c1nnc(-c2cnc(NC3(Cc4ccccc4)CCC3)nc2)o1` [Compound 2030, N-(1-benzylcyclobutyl)-5-(5-(difluoromethyl)-1,3,4-oxadiazol-2-yl)pyrimidin-2-amine], the values for the 50% inhibitory concentration (IC50) in assay [1] and in assay [2] were 758 nM and above 10000 nM, respectively.
In the same order, the values of `CN1CCC(c2ccc(C3(Nc4ncc(-c5nnc(C(F)F)o5)cn4)CCC3)cc2)CC1` [Compound 2035, 5-(5-(difluoromethyl)-1,3,4-oxadiazol-2-yl)-N-(1-(4-(1-methylpiperidin-4-yl)phenyl)cyclobutyl)pyrimidin-2-amine] are 367 nM and above 10000 nM.
In the case of `CCN1CCC(c2ccc(C3(Nc4ncc(-c5nnc(C(F)F)o5)cn4)CCC3)cc2)CC1` [Compound 2036, 5-(5-(difluoromethyl)-1,3,4-oxadiazol-2-yl)-N-(1-(4-(1-ethylpiperidin-4-yl)phenyl)cyclobutyl)pyrimidin-2-amine], the IC50 in assay [1] was 478 nM; in assay [2] it was above 10000 nM.
In the case of `CC(C)N1CCC(c2ccc(C3(Nc4ncc(-c5nnc(C(F)F)o5)cn4)CCC3)cc2)CC1` [Compound 2037, 5-(5-(difluoromethyl)-1,3,4-oxadiazol-2-yl)-N-(1-(4-(1-isopropylpiperidin-4-yl)phenyl)cyclobutyl)pyrimidin-2-amine], the IC50 in assay [1] was 397 nM; in assay [2], above 10000 nM.
In the same order, the values of `FC(F)c1nnc(-c2cnc(NC3(c4ccsc4)CCC3)nc2)o1` [Compound 2038, 5-(5-(difluoromethyl)-1,3,4-oxadiazol-2-yl)-N-(1-(thiophen-3-yl)cyclobutyl)pyrimidin-2-amine] are 111 nM and above 10000 nM.
The matching figures for `FC(F)c1nnc(-c2cnc(NC3(c4cccs4)CC3)nc2)o1` [Compound 2040, 5-(5-(difluoromethyl)-1,3,4-oxadiazol-2-yl)-N-(1-(thiophen-2-yl)cyclopropyl)pyrimidin-2-amine]: 100 nM and above 10000 nM.

One may read the IC50 as the concentration needed to halve the response being measured.
